Laboratory results: PMC10285453 (Comprehensive Psychoneuroendocrinology, 2023)

Assays:
[1] = tested on: primary polyclonal rabbit anti-OXT IgG (Enzo Life Sciences OXT EIA, secondary polyclonal goat anti-rabbit IgG); conditions: competitive EIA; published IC50; ref manufacturer (Enzo Life Sciences); cited from earlier work
[2] = same ultrafiltration columns, cited from earlier work
[3] = Reversed phase SPE of OXT from pure solution; format: physicochemical; conditions: 200 pg/ml pure OXT solution, 0.1% TFA-H2O, separate C-18 column elutions, Enzo Life Sciences EIA
[4] = tested on: primary polyclonal rabbit anti-OXT IgG (Cayman Chemical Company OXT EIA, secondary monoclonal mouse anti-rabbit IgG); conditions: competitive EIA; ref manufacturer (Cayman Chemical Company); cited from earlier work
[5] = tested on: primary polyclonal rabbit anti-OXT IgG (Cayman Chemical Company OXT EIA, secondary monoclonal mouse anti-rabbit IgG); assay: OXT EIA cross-reactivity, Cayman Chemical Company kit; format: binding

oxytocin [OXT]
IC50 of the Enzo Life Sciences OXT assay [1]: 0.228 ng/mL
OXT recovery rate from plasma, ultrafiltration ([2]; plasma): 91.8%
OXT recovery rate from saliva, ultrafiltration ([2]; saliva): 68.4%
OXT recovered in the eluate, reversed phase SPE ([3]; 30–40% ACN range, CV for three columns 30.8–136.5%): 10.1–49.1%
total amount of OXT measured in all fractions (load, wash, eluate) as % of the original sample [3]: 37.1–92.2%
mean IC50 of the Cayman Chemical Company OXT assay [4]: 0.08 ng/mL

Immunoglobulin M
cross-reactivity (IC50(OXT)/IC50(interfering protein)) [5]: < 0.01%

Transferrin
cross-reactivity (IC50(OXT)/IC50(interfering protein)) [5]: < 0.01%

Immunoglobulin G
cross-reactivity (IC50(OXT)/IC50(interfering protein)) [5]: < 0.01%
